What all share (type): functional, cell-based
One experiment deals with SGC-7901. Nature of the experiment: Cytotoxicity against human SGC7901 cells assessed as inhibition of cell growth after 48 hrs by MTT assay. Particulars: SGC-7901, 48 h. Background: Tetrazolium assays rely on reduction of a dye to a coloured formazan, in cell work by metabolically active cells.
A further experiment deals with SMMC-7721. The experiment is described as follows: Cytotoxicity against human SMMC7721 cells assessed as inhibition of cell growth after 48 hrs by MTT assay. Particulars: SMMC-7721, 48 h.
The subject of experiment [1] is MCF7. Nature of the experiment: Cytotoxicity against human MCF7 cells assessed as inhibition of cell growth after 48 hrs by MTT assay. Particulars: MCF7, 48 h.
The test system of a further experiment is A549. Nature of the experiment: Cytotoxicity against human A549 cells assessed as inhibition of cell growth after 48 hrs by MTT assay. Particulars: A549, 48 h.
The subject of a further experiment is HeLa. Nature of the experiment: Cytotoxicity against human HeLa cells assessed as inhibition of cell growth by MTT assay.
For experiment [2], the system named is MCF7. The experiment is described as follows: Cytotoxicity against human MCF7 cells assessed as inhibition of cell growth.
For another experiment, the system named is HL-60. Nature of the experiment: Cytotoxicity against human HL60 cells assessed as inhibition of cell growth after 3 days by MTT assay. The conditions noted are these: HL-60, 72 h.
Another experiment has as its system P338. Nature of the experiment: Cytotoxicity against mouse […] cells assessed as inhibition of cell growth after 3 days by MTT assay. Particulars: 72 h.

By IC50 is commonly meant the concentration needed to halve the response being measured. In the case of `CCCCCCCCCCCC(=O)n1c2cc(OC)ccc2c2ccnc(C)c21`, the IC50 in the experiment with SGC-7901 was 8.76 µM; with SMMC-7721 it was 49.1 µM; in the experiment on MCF7 [1], > 50 µM; in the experiment on A549, 14.6 µM.
In the case of `COc1ccc2c3ccnc(C)c3n(C(=O)c3ccc(C)cc3)c2c1`, the IC50 in the experiment on SGC-7901 was 2.88 µM; in the experiment with SMMC-7721 it was > 50 µM; in the experiment with MCF7 [1], > 50 µM; in the experiment with A549, 1.33 µM.
As for `COc1ccc2c3ccnc(C)c3n(Cc3ccc(F)cc3)c2c1`, the IC50 with SGC-7901 was 7.21 µM; with SMMC-7721 it was > 50 µM; in the experiment with MCF7 [1], > 50 µM; in the experiment on A549, 8.73 µM.
Regarding `COc1ccc2c3ccnc(C)c3n(CCCCCCBr)c2c1`, the IC50 in the experiment on SGC-7901 came to 6.94 µM; in the experiment with SMMC-7721 it was 3.79 µM; with MCF7 [1] it was 0.45 µM; in the experiment on A549 it was 0.87 µM.
In the same order, the values of `CCCn1c2cc(OC)ccc2c2ccnc(C)c21` are 19.4 µM, 48.8 µM, > 50 µM and 9.66 µM.
Regarding `COc1ccc2c3ccnc(C)c3n(C(=O)c3ccccc3)c2c1`, the IC50 in the experiment on SGC-7901 is 7.69 µM; in the experiment on SMMC-7721, > 50 µM; in the experiment on MCF7 [1] it was > 50 µM; in the experiment with A549, 2.81 µM.
As for `COc1ccc2c3ccnc(C)c3n(Cc3ccccc3)c2c1`, the IC50 in the experiment on SGC-7901 is 38.2 µM; with SMMC-7721, 45.6 µM; with MCF7 [1], > 50 µM; in the experiment with A549, 7.49 µM.
With `COc1ccc2c(c1)[nH]c1c(C)nccc12` [HARMINE], the IC50 in the experiment with SGC-7901 was 40.8 µM; in the experiment on SMMC-7721 it was 59.4 µM; in the experiment on MCF7 [1], 68.3 µM; in the experiment with A549 it was 42.2 µM.
On to `COc1ccc2c3ccnc(C)c3n(CCCc3ccccc3)c2c1`, for which, in the experiment on HeLa, the IC50 was determined as 24 µM.
Take `CCCCCn1c2cc(OC)ccc2c2ccnc(C)c21`: the IC50 was 20.5 µM in the experiment on SGC-7901, 17.2 µM in the experiment on SMMC-7721, > 50 µM in the experiment on MCF7 [1] and 6.37 µM with A549.
As to `COc1ccc2c3ccnc(C)c3n(C)c2c1`, the IC50 in the experiment on SGC-7901 was 9.67 µM; in the experiment on SMMC-7721, 43.6 µM; in the experiment with MCF7 [1] it was > 50 µM; with A549, 4.97 µM.
On to `OCc1ccc2c(c1)c1ccccc1n2Cc1ccc(Cl)nc1`, for which the IC50 with MCF7 [2] fell in the range of 20 to 30 µM.
As for `COc1ccc2c3ccnc(C)c3n(Cc3ccc(C)cc3)c2c1`, the IC50 in the experiment with SGC-7901 is 5.29 µM; in the experiment on SMMC-7721, 21.3 µM; in the experiment on MCF7 [1], > 50 µM; in the experiment with A549, 3.89 µM.
For `COc1ccc(S(=O)(=O)Nc2cccnc2Nc2ccc(O)cc2)cc1` [ABT-751], the IC50 in the experiment on HL-60 amounted to 0.2 µM; with P338, 0.16 µM.
For the compound `COc1ccc2c3ccnc(C)c3n(Cc3ccccc3F)c2c1`, the IC50 is 43.6 µM in the experiment with SGC-7901, > 50 µM with SMMC-7721, > 50 µM in the experiment on MCF7 [1] and 5.67 µM in the experiment on A549.

The record behind these values is ChEMBL document CHEMBL4425146, “Synthesis and biological evaluation of N(9)-substituted harmine derivatives as potential anticancer agents” (Bioorg Med Chem Lett, 2016).
